Measured values as given in US12479847B2 (DANA-FARBER CANCER INSTITUTE, INC., priority 2019, dated 2025).

Experiments:
Test in all cases: KINOMEscan (ScanMAX) kinase profiling
Assay type in all cases: binding
panel of 468 kinases [1] = target: T1, panel of 468 kinases (Homo sapiens, UniProt Q96PN8); details: TSSK3; 1 μM; read-out: % control
T1 construct: purchased KINOMEscan (ScanMAX) service
T1 sequence (Q96PN8 1-268): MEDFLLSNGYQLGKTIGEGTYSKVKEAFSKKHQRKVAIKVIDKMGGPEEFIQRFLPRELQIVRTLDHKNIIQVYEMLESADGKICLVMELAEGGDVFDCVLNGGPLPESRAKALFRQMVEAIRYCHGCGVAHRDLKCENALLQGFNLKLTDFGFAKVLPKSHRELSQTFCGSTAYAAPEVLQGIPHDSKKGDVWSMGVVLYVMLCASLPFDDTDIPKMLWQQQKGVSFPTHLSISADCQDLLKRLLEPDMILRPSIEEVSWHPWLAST

panel of 468 kinases [2] = target: T2, panel of 468 kinases (Homo sapiens, UniProt O60285); details: ARKS; 1 μM; read-out: % control
T2 construct: purchased KINOMEscan (ScanMAX) service
T2 sequence (O60285 1-661): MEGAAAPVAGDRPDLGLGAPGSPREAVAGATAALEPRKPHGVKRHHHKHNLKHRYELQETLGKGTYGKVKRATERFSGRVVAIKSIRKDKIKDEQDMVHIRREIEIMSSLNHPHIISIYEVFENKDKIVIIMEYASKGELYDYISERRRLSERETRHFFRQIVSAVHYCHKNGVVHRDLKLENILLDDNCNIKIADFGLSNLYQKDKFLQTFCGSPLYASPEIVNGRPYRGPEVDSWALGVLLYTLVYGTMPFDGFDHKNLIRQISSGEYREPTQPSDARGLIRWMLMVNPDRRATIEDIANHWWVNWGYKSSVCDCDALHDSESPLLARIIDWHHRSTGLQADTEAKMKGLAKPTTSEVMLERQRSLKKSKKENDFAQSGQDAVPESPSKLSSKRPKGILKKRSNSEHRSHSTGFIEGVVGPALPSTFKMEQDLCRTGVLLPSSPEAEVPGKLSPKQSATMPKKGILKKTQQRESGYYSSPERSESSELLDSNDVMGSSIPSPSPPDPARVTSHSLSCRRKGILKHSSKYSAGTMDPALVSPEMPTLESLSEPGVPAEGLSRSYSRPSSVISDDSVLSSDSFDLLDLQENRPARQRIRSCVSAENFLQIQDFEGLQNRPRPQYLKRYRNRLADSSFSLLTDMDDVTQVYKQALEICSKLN

panel of 468 kinases [3] = target: T3, panel of 468 kinases (Homo sapiens, UniProt Q9UPE1); details: SRPK3; 1 μM; read-out: % control
T3 construct: purchased KINOMEscan (ScanMAX) service

panel of 468 kinases [4] = target: T4, panel of 468 kinases (Homo sapiens, UniProt P54762); details: EPHB1; 1 μM; read-out: % control
T4 construct: purchased KINOMEscan (ScanMAX) service
T4 sequence (P54762 18-984): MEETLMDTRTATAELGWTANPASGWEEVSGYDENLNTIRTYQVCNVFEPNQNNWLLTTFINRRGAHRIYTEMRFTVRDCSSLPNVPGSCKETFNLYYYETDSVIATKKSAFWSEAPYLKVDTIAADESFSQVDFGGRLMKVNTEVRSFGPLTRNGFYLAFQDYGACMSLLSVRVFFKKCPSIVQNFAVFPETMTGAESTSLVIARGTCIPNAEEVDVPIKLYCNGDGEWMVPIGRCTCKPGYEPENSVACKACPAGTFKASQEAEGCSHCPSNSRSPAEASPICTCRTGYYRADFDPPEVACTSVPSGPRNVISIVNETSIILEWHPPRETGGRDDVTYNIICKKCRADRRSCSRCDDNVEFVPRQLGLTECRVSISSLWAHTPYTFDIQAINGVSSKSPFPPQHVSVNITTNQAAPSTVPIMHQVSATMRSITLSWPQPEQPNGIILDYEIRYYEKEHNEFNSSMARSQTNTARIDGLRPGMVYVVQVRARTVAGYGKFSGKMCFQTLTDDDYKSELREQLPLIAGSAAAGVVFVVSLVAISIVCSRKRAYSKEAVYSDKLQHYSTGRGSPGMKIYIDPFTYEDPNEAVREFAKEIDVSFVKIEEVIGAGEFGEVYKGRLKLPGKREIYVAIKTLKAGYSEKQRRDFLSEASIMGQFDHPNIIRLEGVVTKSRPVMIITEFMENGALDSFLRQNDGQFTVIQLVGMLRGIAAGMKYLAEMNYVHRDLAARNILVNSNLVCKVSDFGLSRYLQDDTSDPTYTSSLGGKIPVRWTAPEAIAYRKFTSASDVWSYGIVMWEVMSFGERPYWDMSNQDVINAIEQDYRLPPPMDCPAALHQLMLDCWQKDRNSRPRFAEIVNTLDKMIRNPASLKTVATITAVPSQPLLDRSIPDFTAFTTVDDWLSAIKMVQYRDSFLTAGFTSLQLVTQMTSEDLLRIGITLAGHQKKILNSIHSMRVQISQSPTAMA

T3 sequence (Q9UPE1 whole entry): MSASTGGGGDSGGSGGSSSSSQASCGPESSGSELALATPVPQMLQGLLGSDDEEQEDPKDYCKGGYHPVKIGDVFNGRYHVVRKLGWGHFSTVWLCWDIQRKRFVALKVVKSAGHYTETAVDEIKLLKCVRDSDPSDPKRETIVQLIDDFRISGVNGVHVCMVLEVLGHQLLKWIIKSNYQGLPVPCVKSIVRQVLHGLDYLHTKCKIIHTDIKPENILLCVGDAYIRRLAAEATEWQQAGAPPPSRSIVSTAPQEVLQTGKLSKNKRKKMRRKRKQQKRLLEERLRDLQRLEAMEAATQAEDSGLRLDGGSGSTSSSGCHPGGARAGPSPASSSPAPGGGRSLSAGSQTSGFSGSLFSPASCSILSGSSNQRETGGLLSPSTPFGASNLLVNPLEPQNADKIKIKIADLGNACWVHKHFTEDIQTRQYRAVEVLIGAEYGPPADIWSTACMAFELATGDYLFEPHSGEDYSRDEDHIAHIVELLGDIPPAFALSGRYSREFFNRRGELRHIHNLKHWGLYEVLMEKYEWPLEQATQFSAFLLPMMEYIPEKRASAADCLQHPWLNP

## CNc1nc(Nc2ccc(C(=O)N3CCC(N4CCOCC4)CC3)c3c2OCO3)nc2[nH]cc(Cl)c12 [Compound 75, (7-((5-chloro-4-(methylamino)-7H-pyrrolo[2,3-d]pyrimidin-2-yl)amino)benzo[d][1,3]dioxol-4-yl)(4-morpholinopiperidin-1-yl)methanone]
Panel of 468 kinases [1]
  remaining binding at 1 µM: 100%
Panel of 468 kinases [2]
  remaining binding at 1 µM: 23%
Panel of 468 kinases [3]
  remaining binding at 1 µM: 40%
Panel of 468 kinases [4]
  remaining binding at 1 µM: 100%

## CNc1nc(Nc2ccc(S(=O)(=O)N3CCC(N4CCOCC4)CC3)cc2OC)nc2[nH]cc(Cl)c12 [Compound 12, 5-chloro-N2-(2-methoxy-4-((4-morpholinopiperidin-1-yl)sulfonyl)phenyl)-N4-methyl-7H-pyrrolo[2,3-d]pyrimidine-2,4-diamine]
Panel of 468 kinases [1]
  remaining binding at 1 µM: 100%
Panel of 468 kinases [2]
  remaining binding at 1 µM: 100%
Panel of 468 kinases [3]
  remaining binding at 1 µM: 99%
Panel of 468 kinases [4]
  remaining binding at 1 µM: 88%

## CNc1nc(Nc2ccc(P3(=O)CCN(C4CCOCC4)CC3)cc2OC)nc2[nH]cc(Cl)c12 [Compound 77, 4-(4-((5-chloro-4-(methylamino)-7H-pyrrolo[2,3-d]pyrimidin-2-yl)amino)-3-methoxyphenyl)-1-(tetrahydro-2H-pyran-4-yl)-1,4-azaphosphinane 4-oxide]
Panel of 468 kinases [1]
  remaining binding at 1 µM: 100%
Panel of 468 kinases [2]
  remaining binding at 1 µM: 96%
Panel of 468 kinases [3]
  remaining binding at 1 µM: 88%
Panel of 468 kinases [4]
  remaining binding at 1 µM: 100%
